Laboratory results: paper PMC4210147, “Sequence-Specific Dimerization of a Transmembrane Helix in Amphipol A8-35” (PLoS ONE, 2014)

Biological target: T1, human GpA TM domain (Homo sapiens, UniProt P02724)
T1 construct: purchased Peptide Specialty Laboratories, Heidelberg, Germany; host or cells: chemical synthesis (custom peptide)
T1 sequence (P02724 88-120 limits assumed) 1: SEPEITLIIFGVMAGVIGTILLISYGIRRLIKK
T1 sequence (P02724 88-120 limits assumed) 2: T1 sequence (P02724 88-120 limits assumed) 1
Assay: Steady-state FRET, GpA TM helix dimer dissociation upon addition of SDS (mixed A8-35/SDS aggregates)
Assay type: binding
Description: For Förster resonance energy transfer (FRET) measurements, equal concentrations of FL- and TAMRA-labeled GpA TM domains were used. Concentrations of the peptide stock solutions were determined from absorbance measurements on a Perkin Elmer Lambda 35 UV/VIS spectrophotometer. In all experiments, we used 0.25 µM for each of the two labeled GpA peptides. Peptides dissolved in TFE and A8-35 dissolved in ethanol were mixed, and organic solvents were removed under a gentle stream of nitrogen gas. Residual solvent traces were removed by vacuum desiccation overnight. The dried peptide/polymer film was then hydrated in 10 mM HEPES buffer (pH 7.4) containing 150 mM NaCl.
After at least 2 h of incubation at 37°C and 10 min of centrifugation at 16,000 g, steady-state fluorescence measurements were performed with the supernatant at 25°C on a Horiba Fluoromax 4 system with both excitation and emission slits at 3 nm. The excitation wavelength was set at 439 nm, and emission spectra were recorded from 480 to 650 nm. For FRET measurements with SDS, several concentrations of SDS, both below and above the CMC determined for the given buffer conditions, were used, and hydrated samples were incubated overnight.
Energy transfer E was calculated using the donor fluorescence intensities at 525 nm in presence and absence of acceptor according to [drawing 1] (1)
FD is the fluorescence intensity of the donor sample, and FDA is the fluorescence intensity of the sample containing donor and acceptor GpA TM domains at equal concentrations. The energy transfer of sequence-specific TM helix dimerization, ED, can be expressed as: [drawing 2] (2) where f D is the fraction of dimeric TM helices, P D is the probability of donor quenching when the peptides form a dimer, and E R is the energy transfer in the dimer.
The probability P D of donor quenching depends on the molar ratio of the acceptor peptides [drawing 3] , where [a] and [d] are the concentrations of acceptor and donor peptides, respectively. If the distance of the fluorophores in the dimer is much smaller than the Förster radius, as is the case here, ER can be taken as unity.
The fraction of dimers can be written as [drawing 4] , where [D] is the concentration of dimeric peptides and [T] the total peptide concentration.
The dissociation constant, K D, is given by [drawing 6] (4) where the monomer concentration is [drawing 7] .
This indicates a strong destabilization of the GpA dimer after addition of SDS, resulting in dissociation of GpA TM dimers in mixed A8-35/SDS aggregates. […]
Figure 6 Dissociation of the GpA TM domain in APol upon addition of SDS. […] SDS was added to preformed APol/GpA complexes, and emission spectra were recorded at 25°C after incubation at 37°C. […]

**Q.** Which “complete unfolding of GpA dimer in APol/SDS mixed micelles” value (20 µM A8-35 with SDS, analyzed concentration range, compared with DDM/SDS) does the source give for `CC[C@H](C)[C@H](NC(=O)CNC(=O)[C@H](Cc1ccc(O)cc1)NC(=O)[C@H](CO)NC(=O)[C@@H](NC(=O)[C@H](CC(C)C)NC(=O)[C@H](CC(C)C)NC(=O)[C@@H](NC(=O)[C@@H](NC(=O)CNC(=O)[C@@H](NC(=O)[C@@H](NC(=O)CNC(=O)[C@H](C)NC(=O)[C@H](CCSC)NC(=O)[C@@H](NC(=O)CNC(=O)[C@H](Cc1ccccc1)NC(=O)[C@@H](NC(=O)[C@@H](NC(=O)[C@H](CC(C)C)NC(=O)[C@@H](NC(=O)[C@@H](NC(=O)[C@H](CCC(=O)O)NC(=O)[C@@H]1CCCN1C(=O)[C@H](CCC(=O)O)NC(=O)[C@@H](N)CO)[C@@H](C)CC)[C@@H](C)O)[C@@H](C)CC)[C@@H](C)CC)C(C)C)C(C)C)[C@@H](C)CC)[C@@H](C)O)[C@@H](C)CC)[C@@H](C)CC)C(=O)N[C@@H](CCCNC(=N)N)C(=O)N[C@@H](CCCNC(=N)N)C(=O)N[C@@H](CC(C)C)C(=O)N[C@H](C(=O)N[C@@H](CCCCN)C(=O)N[C@@H](CCCCN)C(=O)O)[C@@H](C)CC` [GpA TM domain] here?
**A.** not observed in case of APol/SDS mixed micelles

**Q.** What about the “fraction of dimeric GpA” value (SDS exceeding 1.5 mM, 20 µM A8-35, 0.5 µM labeled GpA TM domain, 25°C, n = 3) of the same compound?
**A.** about 0.3

**Q.** What about the “increase in the dissociation constant upon SDS addition” value (no SDS vs SDS exceeding 1.5 mM, 20 µM A8-35, 0.5 µM labeled GpA TM domain, 25°C, n = 3) of the same compound?
**A.** about one order of magnitude

**Q.** What about the “fraction of dimeric GpA” value (no SDS, 20 µM A8-35, 0.5 µM labeled GpA TM domain, 25°C, n = 3) of the same compound?
**A.** 0.7
